Reference: US4820717A, “Antimicrobial aromatic derivatives substituted by an (omega amino) alkanol group and compositions containing them” (priority 1985, dated 1989)
≈ marks a conversion by molar mass, not a printed value.

Key:
Candida parakruzei 3918 = assay: Antifungal activity (MFC), strain 3; type: cell-based; conditions: 20 min; yeast strain 3; read-out: Minimum fongicidal concentration (MFC)
Description: (§1) A bacterial inoculum is placed in contact with different dilutions of the product to be tested, and this for a limited period of time. At the end of contact, an aliquot part of the mixture bacterial suspension/product is deposited on the surface of an agar culture medium containing an agent neutralizing the antibacterial activity of the product. The bactericidal concentration retained is the smallest concentration of the product from which bacteria stop growing. Said concentration is expressed in μg/ml.
(§2) Plates equipped with cupules receive different dilutions of the product to be analyzed. These dilutions are placed in contact with the different bacterial suspensions by means of a multiple-center inoculator. After 20 minutes of contact, aliquot parts are transferred by means of said inoculator on the surface of an agar medium (TSA) in Petri dishes, containing an activity-neutralizing agent, namely 20 g of lubrol W, 25 g of Tween 80 and 2.5 g of sodium thiosulfate in 1000 ml of TSA (Difco). The efficiency of the neutralizing agent is controlled for each product to be analyzed by depositing on the surface of the culture medium an aliquot part of the dilution of the product to be analyzed. After drying, the corresponding inoculum is deposited in the same place. An inoculum control is performed on an agar medium with or without neutralizing agent. Readings are taken after 48 hours of incubation at 37° C.
(§3) The antifungal activity of the products according to the invention was also determined with the aforedescribed method.
(§4) The fungal strains selected for the analysis are:
3--Candida parakruzei 3918;
(§5) These strains are supported on a Sabouraud Dextrose agar medium commercialized by Difco; the technique used is the same as that used in the analysis of the antibacterial activity. After 48 hours of culture at 37° C., the microbial growth is collected with glass beads and 5 ml of diluent containing 1 g of tryptone and 8.5 g of sodium chloride in 1000 ml of distilled water; 5 ml of the diluent are then added. […] A 1/100th dilution of this suspension, observed between slides under a microscope 40-lens, should show 10 cells per frame, this corresponding to 1,000,000 yeasts per ml.

[1] = test system: Streptococcus faecalis CNCM 5855; assay: Bactericidal activity (MBC), strain 4; type: cell-based; conditions: Enterococcus faecalis, CNCM5855, 20 min; strain 4, 20 minutes of contact; read-out: Minimum bactericidal concentration (MBC)
Description: (§6) The bactericidal activity of the products according to the invention has been analyzed on various strains by the method described hereafter:
as §1
(§7) The bacterial strains selected for the analysis are:
4--Streptococcus faecalis CNCM 5855;
(§8) The second strain is supported on a Worgel Fergusson medium, the other strains being supported on Tryptic Soy Agar-Difco (TSA) commercialized by Difco.
(§9) After a 24-hour culture period at 37° C., the microbial growth is collected by means of glass beads and of 10 ml of diluent containing 1 g of tryptone and 8.5 g of sodium chloride in 1000 ml of distilled water. The formed suspension is stirred and the percentage of light transmission at 620 nm is measured with a spectrophotometer:
(§10) The bacterial inoculum corresponds to a 1/20th dilution of this bacterial suspension.
as §2

[2] = test system: Pseudomonas aeruginosa CNCM A22; assay: Bactericidal activity (MBC), strain 3; type: cell-based; conditions: CNCMA22, 20 min, strain 3, 20 minutes of contact, read-out: Minimum bactericidal concentration (MBC)
Description: as §6, §1, §7
3--Pseudomonas aeruginosa CNCM A22;
as §8, §9, §10, §2

[3] = test system: Candida albicans CNCM 1180; assay: Antifungal activity (MFC), strain 1; type: cell-based; conditions: 20 min; yeast strain 1; read-out: Minimum fongicidal concentration (MFC)
Description: as §1, §2, §3, §4
1--Candida albicans CNCM 1180;
as §5

[4] = test system: Staphylococcus aureus CNCM 53154; assay: Bactericidal activity (MBC), strain 5; type: cell-based; conditions: CNCM53154, 20 min, strain 5, 20 minutes of contact, read-out: Minimum bactericidal concentration (MBC)
Description: as §6, §1, §7
5--Staphylococcus aureus CNCM 53154.
as §8, §9, §10, §2

[5] = test system: Torulopsis glabrata 072023; assay: Antifungal activity (MFC), strain 4; type: cell-based; conditions: 20 min; yeast strain 4; read-out: Minimum fongicidal concentration (MFC)
Description: as §1, §2, §3, §4, §5

Candida tropicalis 3834 = assay: Antifungal activity (MFC), strain 2; type: cell-based; conditions: 20 min; yeast strain 2; read-out: Minimum fongicidal concentration (MFC)
Description: as §1, §2, §3, §4
2--Candida tropicalis 3834;
as §5

[6] = test system: Escherichia Coli CNCM 54125; assay: Bactericidal activity (MBC), strain 1; type: cell-based; conditions: 20 min, strain 1, 20 minutes of contact, read-out: Minimum bactericidal concentration (MBC)
Description: as §6, §1, §7
1--Escherichia Coli CNCM 54125;
as §8, §9, §10, §2

[7] = test system: Encapsulated klebsiella pneumoniae R030; assay: Bactericidal activity (MBC), strain 2; type: cell-based; conditions: 20 min, strain 2, 20 minutes of contact, read-out: Minimum bactericidal concentration (MBC)
Description: as §6, §1, §7
2--Encapsulated klebsiella pneumoniae R030;
as §8, §9, §10, §2

[8] = Acute toxicity by oral route in mice; conditions: mouse, in vivo, per os, male CD1 mice, 14 days observation
Method: Acute toxicity was tested by oral route in mice. This test was carried out with male mice of CD1 strain, obtained from the Charles Reever breeding farm. Each batch was composed of 5 animals of body weight varying between 24 and 30 g kept in the same cage. The animals were kept fasting for 6 hours before the treatment. For every test, the product, placed in suspension in a 10% solution of gum arabic, was administered by forcible feeding with an oesophageal probe. Food was then served to the animals 4 hours after the forcible feeding and the animals were kept under observation for a period of 14 days after the administration. During that period, the death rate is recorded for each batch of animals used in the experiment and, wherever possible, the LD50 is determined by the method of J. T. Litchfield and F. Wilcoxon, J. Pharmacol. 1949, 95, 99-113.
The results are given in mg of substance tested per kg of body weight. They are compiled in Table III below.

Row | SMILES | MFC (Candida parakruzei 3918) | MBC [1] | MBC [2] | MFC [3] | MBC [4] | MFC [5] | MFC (Candida tropicalis 3834) | MBC [6] | MBC [7] | LD50 at 336 h [8]
1 | OCC(CCN1CCc2ccccc2C1)c1cccc2ccccc12 (stereo not shown) [SR 43 247 A] | 1000 µg/mL (≈ 3020 µM) | 300 µg/mL (≈ 905 µM) | 300 µg/mL (≈ 905 µM) | 1000 µg/mL (≈ 3020 µM) | 500 µg/mL (≈ 1510 µM) | 2000 µg/mL (≈ 6030 µM) | 500 µg/mL (≈ 1510 µM) | 300 µg/mL (≈ 905 µM) | 300 µg/mL (≈ 905 µM) | 
2 | CCN(CC)CCCCCCC(CO)c1cccc2ccccc12 (stereo not shown) [SR 43 940 A] |  | 50 µg/mL (≈ 153 µM) | 50 µg/mL (≈ 153 µM) |  | 50 µg/mL (≈ 153 µM) |  |  | 50 µg/mL (≈ 153 µM) | 50 µg/mL (≈ 153 µM) | 
3 | OCC(CCN1CCC(Cc2ccccc2)CC1)c1ccc(-c2ccccc2)cc1 (stereo not shown) [SR 44 029 A] | 50 µg/mL (≈ 125 µM) | 50 µg/mL (≈ 125 µM) | 50 µg/mL (≈ 125 µM) | 50 µg/mL (≈ 125 µM) | 50 µg/mL (≈ 125 µM) | 100 µg/mL (≈ 250 µM) | 50 µg/mL (≈ 125 µM) | 10 µg/mL (≈ 25 µM) | 50 µg/mL (≈ 125 µM) | 
4 | CCN(CC)CCC(CO)c1cccc2ccccc12.Cl (stereo not shown) [SR 42 989 A, 4-(N,N-diethylamino)-2-(1-naphthyl)-butanol hydrochloride] |  | 2000 µg/mL | 1500 µg/mL |  | 1500 µg/mL |  |  | 1500 µg/mL | 1500 µg/mL | 300 to 400 mg/kg
5 | CC1CCN(CCC(CO)c2cccc3ccccc23)CC1 (stereo not shown) [SR 43 382 A] | 2000 µg/mL (≈ 6720 µM) | 5000 µg/mL (≈ 16800 µM) | 2000 µg/mL (≈ 6720 µM) | 5000 µg/mL (≈ 16800 µM) | 2000 µg/mL (≈ 6720 µM) | 10000 µg/mL (≈ 33600 µM) | 1000 µg/mL (≈ 3360 µM) | 5000 µg/mL (≈ 16800 µM) | 2000 µg/mL (≈ 6720 µM) | 
6 | OCC(CCN1CCCCCC1)c1cccc2ccccc12 (stereo not shown) [SR 43 155 A] | 500 µg/mL (≈ 1680 µM) | 500 µg/mL (≈ 1680 µM) | 200 µg/mL (≈ 672 µM) | 500 µg/mL (≈ 1680 µM) | 500 µg/mL (≈ 1680 µM) | 2000 µg/mL (≈ 6720 µM) | 500 µg/mL (≈ 1680 µM) | 500 µg/mL (≈ 1680 µM) | 500 µg/mL (≈ 1680 µM) | < 500 mg/kg
7 | OCC(CCCN1CCN(c2ccccc2)CC1)c1ccccc1 (stereo not shown) [SR 43 970 A, reference compound] |  | 10000 µg/mL (≈ 30800 µM) | 2000 µg/mL (≈ 6160 µM) |  | 5000 µg/mL (≈ 15400 µM) |  |  | 5000 µg/mL (≈ 15400 µM) | 5000 µg/mL (≈ 15400 µM) | 
8 | OCC(CCN(C1CCCCC1)C1CCCCC1)c1cccc2ccccc12 (stereo not shown) [SR 44 227 A] |  | 100 µg/mL (≈ 263 µM) | 500 µg/mL (≈ 1320 µM) |  | 500 µg/mL (≈ 1320 µM) |  |  | 100 µg/mL (≈ 263 µM) | 300 µg/mL (≈ 790 µM) | 
9 | OCC(CCN1CCCCCC1)c1ccc(Cl)c(Cl)c1 (stereo not shown) [SR 43 803 A] | 500 µg/mL (≈ 1580 µM) | 400 µg/mL (≈ 1260 µM) | 500 µg/mL (≈ 1580 µM) | 1000 µg/mL (≈ 3160 µM) | 400 µg/mL (≈ 1260 µM) | 2000 µg/mL (≈ 6320 µM) | 500 µg/mL (≈ 1580 µM) | 400 µg/mL (≈ 1260 µM) | 400 µg/mL (≈ 1260 µM) | 
10 | CC(C)N(CCC(CO)c1cccc2ccccc12)C(C)C (stereo not shown) [SR 43 121 A] |  | 800 µg/mL (≈ 2670 µM) | 1500 µg/mL (≈ 5010 µM) |  | 800 µg/mL (≈ 2670 µM) |  |  | 1500 µg/mL (≈ 5010 µM) | 1500 µg/mL (≈ 5010 µM) | 300 to 400 mg/kg
11 | OCC(CCN1CCC(Cc2ccccc2)CC1)c1ccc(Cl)cc1Cl (stereo not shown) [SR 44 027 A] | 500 µg/mL (≈ 1270 µM) | 100 µg/mL (≈ 255 µM) | 100 µg/mL (≈ 255 µM) | 250 µg/mL (≈ 637 µM) | 200 µg/mL (≈ 510 µM) | 250 µg/mL (≈ 637 µM) | 250 µg/mL (≈ 637 µM) | 50 µg/mL (≈ 127 µM) | 50 µg/mL (≈ 127 µM) | 1000 to 1200 mg/kg
12 | OCC(CCN1CCCCC1)c1ccc2ccccc2c1 (stereo not shown) [SR 43 154 A] |  | 1500 µg/mL (≈ 5290 µM) | 800 µg/mL (≈ 2820 µM) |  | 1000 µg/mL (≈ 3530 µM) |  |  | 2000 µg/mL (≈ 7060 µM) | 1500 µg/mL (≈ 5290 µM) | 
